# Measured values reported in ChEMBL document CHEMBL5126509, “Dual target inhibitors based on EGFR: Promising anticancer agents for the treatment of cancers (2017-)” (Eur J Med Chem, 2022).
# pIC50, pKi: −log10 of the molar value.
# Legend:
# [1] = target: T1, Epidermal growth factor receptor (Homo sapiens, UniProt P00533, T790M); assay: Inhibition of EGFR T790M mutant (unknown origin) incubated for 1 hr by Z-lyte kinase assay
# [2] = target: Hepatocyte growth factor receptor (Homo sapiens, UniProt P08581); assay: Inhibition of c-MET (unknown origin) incubated for 1 hr by Z-lyte kinase assay
# Hepatocyte growth factor receptor, sequence (P08581 whole entry): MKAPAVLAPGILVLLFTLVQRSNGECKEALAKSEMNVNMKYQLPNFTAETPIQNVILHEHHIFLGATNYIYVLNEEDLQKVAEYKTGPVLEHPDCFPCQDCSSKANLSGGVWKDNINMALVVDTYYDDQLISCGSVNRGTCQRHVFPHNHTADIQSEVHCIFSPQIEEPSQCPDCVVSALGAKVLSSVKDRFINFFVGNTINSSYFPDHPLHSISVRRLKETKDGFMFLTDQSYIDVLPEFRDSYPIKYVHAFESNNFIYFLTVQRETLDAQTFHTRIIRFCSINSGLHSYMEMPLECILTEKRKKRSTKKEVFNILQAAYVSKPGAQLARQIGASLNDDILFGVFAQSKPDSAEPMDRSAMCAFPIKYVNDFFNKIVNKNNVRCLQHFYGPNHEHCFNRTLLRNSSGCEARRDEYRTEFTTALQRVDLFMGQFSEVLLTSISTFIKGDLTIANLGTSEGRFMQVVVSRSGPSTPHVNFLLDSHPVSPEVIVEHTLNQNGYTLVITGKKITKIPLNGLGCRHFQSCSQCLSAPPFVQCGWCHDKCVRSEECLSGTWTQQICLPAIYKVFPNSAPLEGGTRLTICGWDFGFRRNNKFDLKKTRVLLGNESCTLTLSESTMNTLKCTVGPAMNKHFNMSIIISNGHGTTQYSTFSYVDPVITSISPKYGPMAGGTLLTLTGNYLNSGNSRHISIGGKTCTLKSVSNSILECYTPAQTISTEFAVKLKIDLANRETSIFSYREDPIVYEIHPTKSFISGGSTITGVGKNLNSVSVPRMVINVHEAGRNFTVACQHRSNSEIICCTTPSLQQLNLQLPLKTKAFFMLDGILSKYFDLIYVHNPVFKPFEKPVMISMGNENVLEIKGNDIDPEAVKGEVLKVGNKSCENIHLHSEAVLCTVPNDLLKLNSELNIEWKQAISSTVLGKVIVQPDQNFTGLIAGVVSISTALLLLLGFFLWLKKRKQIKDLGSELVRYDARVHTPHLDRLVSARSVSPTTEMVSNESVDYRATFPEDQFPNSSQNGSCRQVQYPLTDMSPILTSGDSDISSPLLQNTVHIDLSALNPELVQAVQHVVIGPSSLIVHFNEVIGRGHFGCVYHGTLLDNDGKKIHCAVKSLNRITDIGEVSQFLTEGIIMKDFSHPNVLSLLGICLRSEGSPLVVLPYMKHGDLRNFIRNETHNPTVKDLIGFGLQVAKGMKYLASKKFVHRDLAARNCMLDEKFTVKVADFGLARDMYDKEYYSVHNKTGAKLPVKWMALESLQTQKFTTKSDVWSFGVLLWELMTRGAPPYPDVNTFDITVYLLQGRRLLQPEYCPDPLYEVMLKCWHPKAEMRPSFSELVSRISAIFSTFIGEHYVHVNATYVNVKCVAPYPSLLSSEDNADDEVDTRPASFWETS
# [3] = target: T2, Epidermal growth factor receptor (Homo sapiens, UniProt P00533); assay: Inhibition of EGFR (unknown origin)
# T2 sequence (P00533 whole entry): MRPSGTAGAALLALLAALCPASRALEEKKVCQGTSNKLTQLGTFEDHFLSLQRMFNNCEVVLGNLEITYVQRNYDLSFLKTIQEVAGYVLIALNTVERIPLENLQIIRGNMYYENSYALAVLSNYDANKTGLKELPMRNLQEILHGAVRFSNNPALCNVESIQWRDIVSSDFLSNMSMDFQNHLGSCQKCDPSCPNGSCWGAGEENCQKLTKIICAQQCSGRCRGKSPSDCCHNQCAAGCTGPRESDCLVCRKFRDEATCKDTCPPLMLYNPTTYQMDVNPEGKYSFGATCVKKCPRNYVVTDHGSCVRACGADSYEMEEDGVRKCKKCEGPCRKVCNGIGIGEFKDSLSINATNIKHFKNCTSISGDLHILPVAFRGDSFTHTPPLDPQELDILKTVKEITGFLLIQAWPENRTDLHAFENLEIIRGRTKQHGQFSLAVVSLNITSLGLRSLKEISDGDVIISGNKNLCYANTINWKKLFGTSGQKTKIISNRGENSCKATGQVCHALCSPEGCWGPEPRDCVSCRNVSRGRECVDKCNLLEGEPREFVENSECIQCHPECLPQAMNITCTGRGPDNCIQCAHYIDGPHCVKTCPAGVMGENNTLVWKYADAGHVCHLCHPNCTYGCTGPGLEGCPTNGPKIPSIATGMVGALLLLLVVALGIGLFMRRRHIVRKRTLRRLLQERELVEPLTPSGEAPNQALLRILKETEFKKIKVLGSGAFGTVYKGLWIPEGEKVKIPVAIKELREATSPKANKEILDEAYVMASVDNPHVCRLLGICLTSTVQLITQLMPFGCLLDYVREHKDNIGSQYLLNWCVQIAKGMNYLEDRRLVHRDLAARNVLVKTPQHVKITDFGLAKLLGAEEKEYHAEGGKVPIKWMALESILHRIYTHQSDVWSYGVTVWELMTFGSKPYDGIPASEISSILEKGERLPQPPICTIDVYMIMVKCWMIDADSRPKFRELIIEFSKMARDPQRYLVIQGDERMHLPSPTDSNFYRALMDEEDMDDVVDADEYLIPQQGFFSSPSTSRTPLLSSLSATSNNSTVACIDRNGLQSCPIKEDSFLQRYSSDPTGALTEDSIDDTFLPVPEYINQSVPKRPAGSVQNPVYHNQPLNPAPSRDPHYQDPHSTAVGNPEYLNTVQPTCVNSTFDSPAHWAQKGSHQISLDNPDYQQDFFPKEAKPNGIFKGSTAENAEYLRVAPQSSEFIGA
# A-431 = assay: Antiproliferative activity against human A-431 cells assessed as cell growth inhibition; assay type: functional, cell-based
# [4] = target: Insulin-like growth factor 1 receptor (Homo sapiens, UniProt P08069); assay: Inhibition of IGF1R (unknown origin)
# SK-BR-3 = assay: Antiproliferative activity against human SK-BR-3 cells assessed as cell growth inhibition; assay type: functional, cell-based
# [5] = target: T2, Epidermal growth factor receptor; assay: Binding affinity to GST-tagged human recombinant EGFR expressed in baculovirus infected Sf9 insect cells assessed as inhibition constant using poly(Glu,Tyr) 4:1 as substrate incubated for 60 mins in presence of [gamma33P]ATP by microplate scintillation counter analysis
# [6] = target: Platelet-derived growth factor receptor beta (Homo sapiens, UniProt P09619); assay: Binding affinity to GST-tagged human recombinant PDFGR beta expressed in baculovirus infected Sf9 insect cells assessed as inhibition constant using poly(Ala,Glu,Lys,Tyr) 6:2:5.1 as substrate incubated for 60 mins in presence of [gamma33P]ATP by microplate scintillation counter analysis
# [7] = target: T2, Epidermal growth factor receptor; assay: Inhibition of human EGFR expressed in baculovirus expression system using CAGAGAIETDKEYYTVKD as substrate preincubated for 10 mins followed by substrate and ATP addition measured after 1 hr by TR-FRET assay
# [8] = target: T1, Epidermal growth factor receptor; assay: Inhibition of human EGFR T790M mutant expressed in baculovirus expression system using CAGAGAIETDKEYYTVKD as substrate preincubated for 10 mins followed by substrate and ATP addition measured after 1 hr by TR-FRET assay
# [9] = target: T3, Vascular endothelial growth factor receptor 2 (Homo sapiens, UniProt P35968); assay: Inhibition of VEGFR2 (unknown origin)
# T3 sequence (P35968 whole entry): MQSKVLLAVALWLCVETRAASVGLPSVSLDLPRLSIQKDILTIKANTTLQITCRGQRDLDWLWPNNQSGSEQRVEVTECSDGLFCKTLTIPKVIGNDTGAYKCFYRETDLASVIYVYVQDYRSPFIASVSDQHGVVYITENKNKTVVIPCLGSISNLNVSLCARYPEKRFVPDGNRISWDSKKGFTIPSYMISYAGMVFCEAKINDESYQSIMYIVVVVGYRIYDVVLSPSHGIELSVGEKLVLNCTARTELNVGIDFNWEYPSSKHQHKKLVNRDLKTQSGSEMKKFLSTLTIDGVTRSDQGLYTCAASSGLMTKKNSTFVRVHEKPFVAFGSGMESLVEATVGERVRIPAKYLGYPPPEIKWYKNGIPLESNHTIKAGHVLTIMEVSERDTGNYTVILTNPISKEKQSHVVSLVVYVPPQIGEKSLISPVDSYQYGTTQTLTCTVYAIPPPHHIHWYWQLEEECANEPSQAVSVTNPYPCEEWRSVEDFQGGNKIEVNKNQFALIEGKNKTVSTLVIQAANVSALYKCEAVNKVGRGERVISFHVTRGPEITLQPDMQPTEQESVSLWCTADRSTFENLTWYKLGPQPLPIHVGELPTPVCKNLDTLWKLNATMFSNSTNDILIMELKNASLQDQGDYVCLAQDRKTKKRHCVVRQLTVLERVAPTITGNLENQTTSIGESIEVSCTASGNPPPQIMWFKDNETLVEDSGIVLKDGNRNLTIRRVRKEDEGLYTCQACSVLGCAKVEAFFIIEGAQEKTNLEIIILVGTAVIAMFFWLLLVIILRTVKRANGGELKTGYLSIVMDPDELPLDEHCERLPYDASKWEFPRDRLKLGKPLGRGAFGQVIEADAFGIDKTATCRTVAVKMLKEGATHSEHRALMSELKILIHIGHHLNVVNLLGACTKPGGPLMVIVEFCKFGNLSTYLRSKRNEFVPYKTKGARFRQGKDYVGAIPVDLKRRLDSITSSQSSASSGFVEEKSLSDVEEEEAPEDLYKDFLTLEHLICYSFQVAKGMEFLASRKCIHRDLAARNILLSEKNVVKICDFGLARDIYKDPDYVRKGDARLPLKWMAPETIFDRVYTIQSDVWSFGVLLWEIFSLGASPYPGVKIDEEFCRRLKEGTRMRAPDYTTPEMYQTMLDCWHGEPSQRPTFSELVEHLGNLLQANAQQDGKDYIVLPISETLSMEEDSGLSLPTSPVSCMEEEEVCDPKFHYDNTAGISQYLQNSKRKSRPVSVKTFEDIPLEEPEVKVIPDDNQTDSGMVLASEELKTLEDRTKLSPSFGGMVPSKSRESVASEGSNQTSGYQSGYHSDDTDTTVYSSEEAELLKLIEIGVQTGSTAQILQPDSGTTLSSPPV
# NCI-H1975 [10] = assay: Antiproliferative activity against human NCI-H1975 cells assessed as cell growth inhibition; assay type: functional, cell-based
# [11] = target: T1, Epidermal growth factor receptor; assay: Inhibition of EGFR T790M mutant (unknown origin)
# [12] = target: Epidermal growth factor receptor (Homo sapiens, UniProt P00533, L858R/T790M); assay: Inhibition of EGFR L858R/T790M mutant (unknown origin)
# [13] = target: T2, Epidermal growth factor receptor; assay: Inhibition of EGFR (unknown origin) using FAM-labeled peptide as substrate incubated for 10 mins in presence of ATP by caliper mobility shift assay
# [14] = target: T3, Vascular endothelial growth factor receptor 2; assay: Inhibition of VEGFR-2 (unknown origin) using FAM-labeled peptide as substrate incubated for 10 mins in presence of ATP by caliper mobility shift assay
# HCT-116 [15] = assay: Antiproliferative activity against human HCT-116 cells assessed as cell growth inhibition incubated for 42 hrs by MTT assay; assay type: functional, cell-based; details: HCT-116, 42 h
# MCF7 [16] = assay: Antiproliferative activity against human MCF7 cells assessed as cell growth inhibition incubated for 42 hrs by MTT assay; assay type: functional, cell-based; details: MCF7, 42 h
# B16 = assay: Antiproliferative activity against mouse B16 cells assessed as cell growth inhibition incubated for 42 hrs by MTT assay; assay type: functional, cell-based; details: B16, 42 h
# Histone deacetylase = assay: Inhibition of HDAC in human HeLa cell nuclear extract using Boc-Lys (acetyl)-AMC as substrate preincubated for 5 mins followed by substrate addition measured after 30 mins by microplate reader analysis; assay type: cell-free
# A549 = assay: Antiproliferative activity against human A549 cells assessed as cell growth inhibition measured after 72 hrs by MTT assay; assay type: functional, cell-based; details: A549, 72 h
# HeLa = assay: Antiproliferative activity against human HeLa cells assessed as cell growth inhibition measured after 72 hrs by MTT assay; assay type: functional, cell-based
# MDA-MB-231 = assay: Antiproliferative activity against human MDA-MB-231 cells assessed as cell growth inhibition measured after 72 hrs by MTT assay; assay type: functional, cell-based; details: MDA-MB-231, 72 h
# MDA-MB-468 = assay: Antiproliferative activity against human MDA-MB-468 cells assessed as cell growth inhibition measured after 72 hrs by MTT assay; assay type: functional, cell-based; details: MDA-MB-468, 72 h
# KG-1 = assay: Antiproliferative activity against human KG-1 cells assessed as cell growth inhibition measured after 72 hrs by MTT assay; assay type: functional, cell-based; details: KG-1, 72 h
# [17] = target: T2, Epidermal growth factor receptor; assay: Inhibition of EGFR (unknown origin) incubated for 30 mins in presence of ATP by fluorescence based analysis
# [18] = target: T2, Epidermal growth factor receptor; assay: Inhibition of EGFR (unknown origin) by ADP-Glo kinase assay
# [19] = target: Tyrosine-protein kinase CSK (Homo sapiens, UniProt P41240); assay: Inhibition of CSK (unknown origin) by ADP-Glo kinase assay
# Tubulin = assay: Inhibition of tubulin polymerization in human HCT-116 cells incubated for 18 to 24 hrs by horseradish peroxidase based ELISA method; assay type: cell-based
# MCF7 [20] = assay: Antiproliferative activity against human MCF7 assessed as cell growth inhibition measured after 72 hrs by MTT assay; assay type: functional, cell-based; details: MCF7, 72 h
# HCT-116 [21] = assay: Antiproliferative activity against human HCT-116 assessed as cell growth inhibition measured after 72 hrs by MTT assay; assay type: functional, cell-based; details: HCT-116, 72 h
# [22] = target: Fibroblast growth factor receptor 1 (Homo sapiens, UniProt P11362); assay: Inhibition of N-terminal GST-tagged recombinant wild type human FGFR1 (398 to 822 residues) expressed in baculovirus infected Sf21 cells incubated for 1 hr in presence of ATP by caliper mobility shift assay
# NCI-H1975 [23] = assay: Antiproliferative activity against human NCI-H1975 cells assessed as cell growth inhibition incubated for 72 hrs by MTS assay; assay type: functional, cell-based; details: NCI-H1975, 72 h
# T1 sequence (P00533 25-1210 T790M limits assumed): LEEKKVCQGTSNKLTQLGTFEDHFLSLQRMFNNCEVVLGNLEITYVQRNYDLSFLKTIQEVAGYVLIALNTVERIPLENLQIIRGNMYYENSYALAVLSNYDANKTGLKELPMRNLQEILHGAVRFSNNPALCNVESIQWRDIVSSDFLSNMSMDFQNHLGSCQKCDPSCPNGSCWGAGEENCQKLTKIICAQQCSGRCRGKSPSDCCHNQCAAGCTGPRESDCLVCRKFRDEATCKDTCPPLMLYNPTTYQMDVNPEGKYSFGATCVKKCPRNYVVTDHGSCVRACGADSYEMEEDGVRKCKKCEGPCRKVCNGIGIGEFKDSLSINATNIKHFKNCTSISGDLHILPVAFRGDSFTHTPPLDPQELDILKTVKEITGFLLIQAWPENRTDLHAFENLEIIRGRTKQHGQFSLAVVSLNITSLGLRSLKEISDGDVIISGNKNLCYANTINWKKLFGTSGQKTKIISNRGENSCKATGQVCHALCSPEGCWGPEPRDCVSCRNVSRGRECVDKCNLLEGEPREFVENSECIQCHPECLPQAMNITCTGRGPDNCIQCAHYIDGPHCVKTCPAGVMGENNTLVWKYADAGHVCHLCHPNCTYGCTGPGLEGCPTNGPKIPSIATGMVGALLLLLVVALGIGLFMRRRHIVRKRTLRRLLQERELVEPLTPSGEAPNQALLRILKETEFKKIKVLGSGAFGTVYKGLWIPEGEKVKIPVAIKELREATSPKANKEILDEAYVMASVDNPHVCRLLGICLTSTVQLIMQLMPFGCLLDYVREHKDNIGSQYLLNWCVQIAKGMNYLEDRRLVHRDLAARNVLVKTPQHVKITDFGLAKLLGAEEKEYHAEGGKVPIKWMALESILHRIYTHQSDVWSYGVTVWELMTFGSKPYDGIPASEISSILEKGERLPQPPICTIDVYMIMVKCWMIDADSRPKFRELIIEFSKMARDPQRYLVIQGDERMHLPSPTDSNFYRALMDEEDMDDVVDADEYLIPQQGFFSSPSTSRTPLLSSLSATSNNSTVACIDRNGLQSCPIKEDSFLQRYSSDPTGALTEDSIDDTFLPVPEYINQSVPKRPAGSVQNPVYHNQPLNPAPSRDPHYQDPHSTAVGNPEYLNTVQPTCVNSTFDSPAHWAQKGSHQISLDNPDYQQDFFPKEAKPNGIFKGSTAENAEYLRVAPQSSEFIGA
structure (smiles),measurement,setting,value
Nc1nc(-c2ccc(Br)cc2)cc(-c2cn(Cc3cccc(Cl)c3)c3ccccc23)n1,pIC50,[1],6.71
same,pIC50,[2],7.00
CCc1ccc(Cn2cc(-c3cc(-c4ccc(Br)cc4)nc(N)n3)c3ccccc32)cc1,pIC50,[1],7.01
same,pIC50,[2],6.29
CCOc1cc2ncc(C#N)c(Nc3ccc(OCc4ccccc4)cc3)c2cc1NC(=O)/C=C/c1cccnc1,pIC50,[3],6.22
same,pIC50,A-431,5.72
same,pIC50,[4],6.04
same,pIC50,SK-BR-3,5.71
Nc1nc(Nc2ccc(COc3cccc(F)c3)cc2)c2c(n1)[nH]c1ccc(O)cc12,pKi,[5],6.77
same,pKi,[6],7.09
O=C(Cc1ccccc1)Nc1cccc(-c2nc3n(c2-c2ccnc(Nc4ccc(N5CCOCC5)cc4)n2)CCS3)c1,pIC50,[7],7.45
same,pIC50,[8],7.18
C=CC(=O)Nc1cc2c(Nc3ccc(Br)cc3F)ncnc2cc1OCCNC(=O)CN(C)C,pIC50,[3],8.70
same,pIC50,[9],6.99
same,pIC50,A-431,7.85
same,pIC50,NCI-H1975 [10],6.89
same,pIC50,[11],7.96
same,pIC50,[12],8.52
COc1cc2ncnc(Oc3cccc(NC(=S)Nc4ccc(Cl)c(C(F)(F)F)c4)c3)c2cc1OC,pIC50,[13],7.70
same,pIC50,[14],7.30
same,pIC50,HCT-116 [15],5.25
same,pIC50,MCF7 [16],5.25
same,pIC50,B16,5.25
COc1cc(NC(=O)CCCCCCC(=O)NO)ccc1Nc1nccc(-c2cn(C)c3ccccc23)n1,pIC50,Histone deacetylase,7.07
same,pIC50,A549,5.66
same,pIC50,HeLa,5.73
same,pIC50,MDA-MB-231,6.22
same,pIC50,MDA-MB-468,6.64
same,pIC50,KG-1,6.38
Cc1nn(-c2ccc(F)cc2)c2ncnc(Nc3ccc(F)c(Cl)c3)c12,pIC50,[17],6.73
COc1ccc(CCOc2ccc(C(=O)/C=C/c3ccc(O)c(O)c3)cc2OC)cc1OC,pIC50,[18],4.95
same,pIC50,[19],5.29
CCOc1cc2ncc(C#N)c(Nc3ccc(OCc4ccccn4)c(Cl)c3)c2cc1NC(=O)/C=C/CN(C)C [NERATINIB],pIC50,A-431,5.67
COc1cc2ncnc(Sc3cccc(NC(=S)Nc4ccc(Br)c(C(F)(F)F)c4)c3)c2cc1OC,pIC50,[13],8.00
same,pIC50,[14],7.10
same,pIC50,HCT-116 [15],5.25
same,pIC50,MCF7 [16],5.25
same,pIC50,B16,5.25
CCc1nnc2c(Nc3ccc(C(=O)/C=C/c4cc(OC)c(OC)c(OC)c4)cc3)nc3ccccc3n12,pIC50,Tubulin,5.05
same,pIC50,MCF7 [20],5.78
same,pIC50,HCT-116 [21],5.44
CN1CCN(c2ccc(Nc3ncc(Br)c(Nc4ccc5cn[nH]c5c4)n3)cc2)CC1,pIC50,[22],7.75
same,pIC50,NCI-H1975 [23],6.47
CC(C)c1ccc(Cn2cc(-c3cc(-c4ccc(Br)cc4)nc(N)n3)c3ccccc32)cc1,pIC50,[1],7.03
same,pIC50,[2],6.23
